From US10351883B2, “Compounds for increasing lipid synthesis and storage” (NUtech Ventures, priority 2015, dated 2019)
Where two headings read alike, the source gives them in different places.

What was measured:
Assay type in all cases: cell-based
[1] = test system: Chlamydomonas reinhardtii cells; experiment: Cellular chlorophyll and carotenoid levels; conditions: 30 μM, FIG. 7
[2] = test system: Chlamydomonas reinhardtii cells; experiment: Microscopy of treated cells (organelles, lipid droplets); conditions: FIG. 1
Experimental: (§1) The screening library included 43,736 compounds (ChemBridge, Corp). […] A sub-set of compounds were retested using an 8-point dose response assay (0.25-30 μM). Compounds were further assessed visually using a Nikon Ti-inverted microscope (60×) to reconfirm lipid droplet accumulation was induced.

[3] = test system: Chlamydomonas reinhardtii cells; experiment: Triglyceride assay; conditions: 5 μM, FIG. 6
[4] = test system: Chlamydomonas reinhardtii cells; experiment: Lipid accumulation using lipophilic dye Nile Red; conditions: for lipid accumulation: 0.5 μM to 15.0 μM, FIG. 3; for lipid accumulation over 72 hours: 30 μM test compound, FIG. 4
Experimental: […] At the indicated times 200 μL cells were removed from each well and optical density and nile red fluorescence were measured.
Lipid accumulation over a period of 72 hours was also measured (30 μM test compound) using lipophilic dye Nile Red, as shown in FIG. 4. […] FIGS. 12A-12C show representative images of C. reinhardtii cultures that were treated with 10 μM of representative test compounds of Formula Ia, Formula IIa, and Formula IIIa. The corresponding lipid accumulation was visualized using confocal microscopy after 72 hours in culture.

[5] = test system: Chlorella sorokiniana UTEX 1230; experiment: Lipid accumulation in algal cells; conditions: 0.63 μM to 50 μM, FIG. 11A-11C
Experimental: (§2) Compounds 1, 62, and 136 were assayed in algal species Chlamydomonas reinhardtii CC125, Chlorella sorokiniana UTEX 1230, Chlorella vulgaris UTEX 395, and Tetrachlorella alterns UTEX 2453 at concentrations ranging from 0.63 μM to 50 μM.

[6] = test system: Tetrachlorella alterns UTEX 2453; experiment: Lipid accumulation in algal cells; conditions: 0.63 μM to 50 μM, FIG. 11A-11C
Experimental: as §2

[7] = test system: Chlamydomonas reinhardtii CC125; experiment: Lipid accumulation in algal cells; conditions: 0.63 μM to 50 μM, FIG. 11A-11C
Experimental: as §2

[8] = test system: Chlorella vulgaris UTEX 395; experiment: Lipid accumulation in algal cells; conditions: 0.63 μM to 50 μM, FIG. 11A-11C
Experimental: as §2

[9] = test system: Chlamydomonas reinhardtii cells; experiment: Cellular carbohydrate levels; conditions: 30 μM, FIG. 9
[10] = test system: Chlamydomonas reinhardtii cells; experiment: Fatty acid assay; conditions: 30 μM, FIG. 5
[11] = test system: Chlamydomonas reinhardtii cells; experiment: Levels of proteins required for photosynthesis; conditions: Rubisco large and small sub unit, PSa D, PSb A, phosphoribulokinase, histone; FIG. 8
[12] = test system: Chlamydomonas reinhardtii cells; experiment: Total protein levels in cells; conditions: FIG. 10
[13] = test system: Chlamydomonas reinhardtii; experiment: 8-point dose response assay (0.25-30 μM); design: reference not given here; conditions: for Dose Response Assay 0.25 μM: 0.25 μM compound; for Dose Response Assay 0.625 μM: 0.625 μM compound; for Dose Response Assay 2.5 μM: 2.5 μM compound; for Dose Response Assay 5 μM: 5 μM compound; for Dose Response Assay 10 μM: 10 μM compound; for Dose Response Assay 15 μM: 15 μM compound; for Dose Response Assay 30 μM: 30 μM compound
Experimental: A large scale in vivo high throughput screen (HTS) was performed to identify small compounds that stimulate lipid production and accumulation using the model organism Chlamydomonas reinhardtii. The HTS employed a 384-well microplate format in which cells were allowed to grow in the presence of the test compounds at 10 μM final concentration for 72 hours.
as §1

[14] = 8-point dose response, Nile Red lipid accumulation

| Structure (SMILES) | Dose Response Assay 1.25 μM [13] | Dose Response Assay 0.25 μM [13, 14] | Dose Response Assay 0.625 μM [13, 14] | Dose Response Assay 2.5 μM [13, 14] | Dose Response Assay 5 μM [13, 14] | Dose Response Assay 10 μM [13, 14] | Dose Response Assay 15 μM [13, 14] | Dose Response Assay 30 μM [13, 14] | also measured |
| --- | --- | --- | --- | --- | --- | --- | --- | --- | --- |
| COc1ccc(CCN(C)Cc2ccc([N+](=O)[O-])cc2)cc1OC [Compound 1, 2-(3,4-dimethoxyphenyl)-N-methyl-N-(4-nitrobenzyl)ethan-1-amine] |  |  |  |  |  |  |  |  | carotenoid levels [1]: did not significantly alter; levels of chlorophyll A (Chl A) [1]: did not significantly alter; levels of chlorophyll B (Chl B) [1]: did not significantly alter; disruption of major organelles including nucleus, endoplasmic reticulum, and chloroplast [2]: does not disrupt major organelles; triacylglyercol levels [3]: increased triacylglyercol levels; lipid accumulation [4]: increased lipid accumulation; lipid accumulation over 72 hours [4]: increased lipid accumulation; lipid accumulation [5]: stimulated lipid accumulation; lipid accumulation [6]: stimulated lipid accumulation; lipid accumulation [7]: stimulated lipid accumulation; lipid accumulation [8]: stimulated lipid accumulation; carbohydrate levels [9]: increased carbohydrate levels; fatty acid levels [10]: increased fatty acid levels; levels of proteins required for photosynthesis [11]: did not significantly affect; total protein levels [12]: None of the test compounds significantly affected |
| COc1ccccc1N1CCN(Cc2ccc(O)cc2)CC1 [Compound 62, 4-((4-(2-methoxyphenyl)piperazin-1-yl)methyl)phenol] |  |  |  |  |  |  |  |  | carotenoid levels [1]: did not significantly alter; levels of chlorophyll A (Chl A) [1]: did not significantly alter; levels of chlorophyll B (Chl B) [1]: did not significantly alter; disruption of major organelles including nucleus, endoplasmic reticulum, and chloroplast [2]: does not disrupt major organelles; triacylglyercol levels [3]: increased triacylglyercol levels; lipid accumulation [4]: increased lipid accumulation; lipid accumulation over 72 hours [4]: increased lipid accumulation; lipid accumulation [5]: stimulated lipid accumulation; lipid accumulation [6]: stimulated lipid accumulation; lipid accumulation [7]: stimulated lipid accumulation; lipid accumulation [8]: stimulated lipid accumulation; carbohydrate levels [9]: increased carbohydrate levels; fatty acid levels [10]: increased fatty acid levels; levels of proteins required for photosynthesis [11]: minor effects; total protein levels [12]: None of the test compounds significantly affected |
| Fc1ccc(CN2CCN(c3ccccc3Cl)CC2)cc1 [Compound 69] | 1.29 | 1.05 | 0.96 | 3.01 | 2.44 | 3.49 | 3.49 | 2.54 |  |
| CC(C)c1ccc(CN2CCN(C)CC2)cc1 [Compound 70] | 2.19 | 0.87 | 1.55 | 4.4 | 8.64 | 7.57 | 11.05 | 11.07 |  |
| Cc1cccc(N2CCN(Cc3ccc([N+](=O)[O-])cc3)CC2)c1C [Compound 74] | 0.80 |  |  |  |  |  |  |  |  |
| CCc1ccc(CN2CCN(c3ccccc3C)CC2)cc1 [Compound 84] | 1 | 0.92 | 0.89 | 2.5 | 2.05 | 1.64 | 2.19 | 1.34 |  |
| Brc1ccc(CN2CCN(c3ccccc3)CC2)cc1 [Compound 86] | 1.69 | 0.98 | 1.01 | 2.39 | 2.29 | 2.71 | 3.38 | 3.76 |  |
| COc1cc(CN2CCN(Cc3ccccc3)CC2)cc(OC)c1 [Compound 99] | 0.97 | 0.98 | 0.84 | 1.4 | 1.96 | 2.96 | 3.37 | 4.22 |  |
| COc1cccc(CN2CCN(C(=O)c3cc(OC)c(OC)c(OC)c3)CC2)c1OC [Compound 101] | 1.14 | 1.03 | 1.08 | 0.88 | 1.58 | 1.04 | 1.43 | 1.75 |  |
| CCN1CCN(Cc2ccc(N(CC)CC)cc2)CC1 [Compound 104] | 3.96 | 1.23 | 3.68 | 5.27 | 4.04 | 2.81 | 3.28 | 3.69 |  |
| Oc1ccc(Cl)cc1CN1CCN(Cc2ccccc2)CC1 [Compound 107] | 1.23 | 0.98 | 1.01 | 2.05 | 2.31 | 2.48 | 3.07 | 3.06 |  |
| COc1ccccc1C(=O)N1CCN(C(=O)C(c2ccccc2)c2ccccc2)CC1 [Compound 120] | 0.89 | 0.91 | 0.64 | 1.12 | 1.07 | 2.15 | 3.19 | 1.02 |  |
| O=[N+]([O-])c1ccccc1CN1CCN(CC2CC3C=CC2C3)CC1 (stereo not shown) [Compound 124] | 0.99 |  |  |  |  | 0.88 |  |  |  |
| CC(=O)NC1=C(N2CCN(Cc3ccccc3)CC2)C(=O)c2ccccc2C1=O [Compound 134] | 0.93 | 0.97 | 1.06 | 1.32 | 1.77 | 1.31 | 1.97 | 2.14 |  |
| Cl.Oc1ccccc1CNCCC12CC3CC(CC(C3)C1)C2 [Compound 148] |  | 0.94 | 1.04 | 1.32 | 1.63 | 1.39 | 1.65 | 1.45 | Dose Response Assay 1.25 μM ([13]; 1.25 μM compound, 8-point dose response, Nile Red lipid accumulation): 0.88 |
